Measurements published in patent US5238958A, “Substituted α-amino acids having selected acidic moieties for use as excitatory amino acid antagonists in pharmaceuticals” (Warner-Lambert Company, priority 1990, dated 1993).
Counter-ions that a name gives are not always drawn.

What follows are compounds tested against NMDA receptor (assay: NMDA receptor binding assay using [3H]CPP as antagonist ligand). Settings: in vitro, essentially as Murphy et al, J. Pharm. Exp. Ther. 240:778 (1987).
From the text: The activity of the compounds of the formula I is shown in vitro in an NMDA receptor binding assay based on the use of [^3 H]CPP as antagonist ligand in a manner essentially as set out by B. E. Murphy, et al, in J. Pharm. Exp. Ther. 240:778 (1987).

IC50 [µM] | Compound
< 100 | NC(C(=O)O)c1ccc(CC(=O)O)cc1 (racemic) [Example I1, 1,4-Benzenediacetic acid, α-amino-, (±)]
< 100 | NC(C(=O)O)c1ccc(CC(=O)O)c(O)c1 (racemic) [Example I3, 1,4-Benzenediaoetic acid, α-amino-2-hydroxy-,-monohydrochloride, (±)]
< 100 | NC(C(=O)O)c1ccc(O)c(CC(=O)O)c1 (stereo not drawn) [Example I2, α-Amino-4-hydroxy-1,3-benzenediacetic acid]
